SMILES strings stand for the structures. Where two headings read alike, the source gives them in different places.

We go through seven compounds from US4803198A, “1-Phenyl-2-aminocarbonylindole compounds, preparation thereof and pharmaceutical compositions containing them” (Kali-Chemie Pharma GmbH, priority 1981, dated 1989).

Series [1] has as its system ventricular fibrillation caused by inhalation of chloroform. As to the kind of experiment: Inhibition of ventricular fibrillation caused by inhalation of chloroform (method of Lawson). The following applies: mice, 10 min before chloroform. It counts as in vivo. The procedure: For example, in mice, the compounds have an inhibiting effect on ventricular fibrillation caused by inhalation of chloroform. The effect of the compounds on ventricular fibrillation in mice caused by inhalation of chloroform leading to rapid cessation of breathing is determined by the method of Lawson (J. Pharmacol. Exp. Ther. 160, 22-23).
In this experimental procedure, the minimum toxic dose can also be determined at the same time. The test substance, dissolved in 0.9% strength sodium chloride solution, is administered intraperitoneally to female mice of 17-24 g body weight. The animals are kept individually in glass beakers, where they are observed for possible toxic symptoms. Ten minutes after administration of the test substance, the animals are transferred to covered 300 ml glass beakers containing a cottonwool swab soaked with about 20 ml of chloroform. As soon as breathing begins to stop, the heart is exposed and the ventricular rhythm and rate are observed visually. The percentage of animals protected from ventricular fibrillation by the dose administered is given.
in the test described above, the compounds of formula I display antiarrhythmic actions in a dose range from 0.1 to 100 mg/kg.
The Example numbers given for the compounds of formula I relate to the preparation Exaples below.

The next series relates to mice. The following applies: mouse, in vivo.
Series [2] has as its system disorders in cardiac rhythm induced by aconitine infusion. Description: Inhibition of disorders in cardiac rhythm induced by aconitine infusion (method of Raschak). The following applies: Rattus norvegicus, iv. It counts as in vivo, rats. The procedure:
The compounds also show an inhibiting action on disorders in cardiac rhythm induced by aconitine infusion [extrasystoles (ES), ventricular tachycardia (VT) and ventricular fibrillation (VF)] in rats in the experimental method of Raschak (Arzneimittelforsch. 25 (1975) 639-641). Thus, for example, the minimum effective doses of 2-[3-(N,N-diethylamino)-2-hydroxypropylaminocarbonyl]-3-methoxy-1-phenylindole on intravenous administration 5 minutes before the start of aconitine infusion are as follows: […]

A short description of another series: Acute toxicity. The following applies: in vivo; for LD50: mouse. An excerpt: This gives a therapeutic range (=quotient LD50 .sbsb.mouse /EDmin) of 8-17.
The test system of series [3] is isolated left auricle of female guinea pigs. Description: Functional refractory period prolonging and contraction force reducing action, double-stimulation method of Govier. The following applies: isolated atrium from guinea pigs; for EC (125%) / IC25: Cavia porcellus; for EC (125%): 0.3 h, 18 minutes after administration, read-out: FRP: concentration at which the functional refractory period is increased to 125%; for IC25: read-out: Force: concentration at which the contraction force is reduced to 75% of the starting value; for Force/FRP quotient of concentrations: indication of therapeutic range. The text has this:
The favourable relationship between the functional refractory period prolonging action (FRP) and the contraction force reducing action (force) of the compounds can also be shown on the isolated left auricle of female guinea pigs of 300-400 g body weight by the double-stimulation method of Govier [J. Pharmakol.

`CCN(CC)CC(O)CNC(=O)c1c(OC)c2ccccc2n1-c1ccccc1` (stereo not shown) [Example 1, 2-[3-(N,N-Diethylamino)-2-hydroxypropylaminocarbonyl]-3-methoxy-1-phenylindole]: the “% of protected animals” value in series [1] (dose 25 mg/kg ip) came out at 100%. The Minimum toxic dose is 300 mg/kg with mice (ip) and 100 mg/kg in the series with mice (po). In addition, the minimal effective dose was 2.15 µmol/kg in series [2] (read-out: Minimum effective inhibiting dose, extrasystoles); greater than 12 µmol/kg in series [2] (read-out: Minimum effective inhibiting dose, heart rate); 4.64 µmol/kg in series [2] (read-out: Minimum effective inhibiting dose, ventricular fibrillation); 2.15 µmol/kg in series [2] (read-out: Minimum effective inhibiting dose, ventricular tachycardia). For the same compound, the LD50 – broadly, the dose at which mortality reaches 50% – in the series “Acute toxicity” (ip, administered intraperitoneally) is 164 µmol/kg; in the series “Acute toxicity” (iv, administered intravenously) it was 37.3 µmol/kg. Also, the selectivity ratio in the series “Acute toxicity” (LD50 mouse over minimum effective dose in aconitine test, read-out: therapeutic range (=quotient LD50 mouse/EDmin)) is 8 to 17. For the same compound, in series [3], the EC (125%) was 3.6 µM. Further, the IC25 in series [3] turned out to be 6.3 µM. Besides, the “Force/FRP quotient of concentrations” value in series [3] was found to be 1.8.
Take `CN(C)CCNC(=O)c1c(O)c2ccccc2n1-c1ccc(Cl)cc1` [Example 2, 2-[2-(N,N-Dimethylamino)-ethylaminocarbonyl]-3-hydroxy-1-(4'-chlorophenyl)-indole]: in series [1] (dose 100 mg/kg ip), the “% of protected animals” value was found to be 100%. Moreover, the values for the Minimum toxic dose in the series on mice (ip) and with mice (po) were no less than 100 mg/kg and no less than 300 mg/kg, respectively.
As for `COc1c(C(=O)NCCN(C)C)n(-c2ccc(Cl)cc2)c2ccccc12` [Example 15], the “% of protected animals” value in series [1] (dose 100 mg/kg ip) worked out at 100%. In addition, the Minimum toxic dose with mice (ip) is no less than 100 mg/kg; in the series on mice (po), no less than 300 mg/kg.
As to `CCN(CC)CCCNC(=O)c1c(OC)c2ccccc2n1-c1ccccc1` [Example 20], in series [1] (dose 10 mg/kg ip), the “% of protected animals” value amounted to 100%. In the series on mice (ip), this compound displayed a Minimum toxic dose of 300 mg/kg. Further, the Minimum toxic dose in the series on mice (po) is recorded as 50 mg/kg. Moreover, in series [3], the EC (125%) is 0.66 µM, the IC25 was 3.57 µM and the “Force/FRP quotient of concentrations” value is listed as 5.4.
Take `CCN(CC)CCCCNC(=O)c1c(OC)c2ccccc2n1-c1ccccc1` [Example 22]: the “% of protected animals” value in series [1] (dose 10 mg/kg ip) was 66.7%. In addition, the Minimum toxic dose with mice (ip) is given as 300 mg/kg; in the series on mice (po) it was 50 mg/kg.
Turning to `Cc1cccc(-n2c(C(=O)NCCN(C)C)c(O)c3ccccc32)c1C` [Example 25], the “% of protected animals” value in series [1] (dose 100 mg/kg ip) is reported as 66.7%. For the same compound, the Minimum toxic dose with mice (ip) is no less than 100 mg/kg; in the series on mice (po), no less than 300 mg/kg.
Turning to `COc1c(C(=O)NCCN(C)C)n(-c2ccccc2)c2ccc(Br)cc12` [Example 30], the “% of protected animals” value in series [1] (dose 50 mg/kg ip) is 33.3%. Also, the values for the Minimum toxic dose with mice (ip) and in the series with mice (po) were no less than 300 mg/kg and 200 mg/kg, respectively.
